Data published in PubChem BioAssay (NCI).
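48-hour exposure; five concentrations; linearly interpolated endpoints. GI50: concentration for 50% inhibition of growth. TGI: concentration producing complete growth inhibition.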

Assays:
Assay in all cases: growth of human tumour cells (NCI), 48 h
[1] = test system: DU-145 prostate
[2] = test system: NCI/ADR-RES ovarian
[3] = test system: SNB-75 CNS
[4] = test system: RPMI-8226 leukemia
[5] = test system: NCI-H226 lung
[6] = test system: SF-539 CNS
[7] = test system: BT-549 breast
[8] = test system: NCI-H460 lung
[9] = test system: MCF7 breast
[10] = test system: K-562 leukemia
[11] = test system: HCC-2998 colon
[12] = test system: OVCAR-3 ovarian
[13] = test system: SK-OV-3 ovarian
[14] = test system: HL-60(TB) leukemia
[15] = test system: SR leukemia
[16] = test system: NCI-H522 lung
[17] = test system: SN12C renal
[18] = test system: OVCAR-4 ovarian
[19] = test system: PC-3 prostate
[20] = test system: M14 melanoma
[21] = test system: HS 578T breast
[22] = test system: TK-10 renal
[23] = test system: CAKI-1 renal
[24] = test system: ACHN renal
[25] = test system: HOP-62 NSCLC
[26] = test system: NCI-H23 lung
[27] = test system: U251 CNS
[28] = test system: RXF 393 renal
[29] = test system: OVCAR-8 ovarian
[30] = test system: MALME-3M melanoma
[31] = test system: KM12 colon
[32] = test system: SK-MEL-5 melanoma
[33] = test system: SF-295 CNS
[34] = test system: SK-MEL-28 melanoma
[35] = test system: HCT-116 colon
[36] = test system: CCRF-CEM leukemia
[37] = test system: IGROV1 ovarian
[38] = test system: HOP-92 NSCLC
[39] = test system: MOLT-4 leukemia
[40] = test system: MDA-MB-231 breast
[41] = test system: SF-268 CNS
[42] = test system: T-47D breast
[43] = test system: A549 NSCLC
[44] = test system: COLO 205 colon
[45] = test system: MDA-MB-435
[46] = test system: SK-MEL-2 melanoma
[47] = test system: HCT-15 colon
[48] = test system: SW-620 colon
[49] = test system: OVCAR-5 ovarian
[50] = test system: LOX IMVI melanoma
[51] = test system: UACC-62 melanoma
[52] = test system: SNB-19 CNS
[53] = test system: UO-31 renal
[54] = test system: HT29 colon
[55] = test system: A498 renal
[56] = test system: 786-0 renal
[57] = test system: UACC-257 melanoma

Nc1ncnc2c1c(-c1cccc(OCc3ccccc3)c1)cn2C1CC(CN2CCCC2)C1 (centres undefined)
GI50 [1]: 4000 nM | TGI [1]: 16900 nM | GI50 [2]: 5010 nM | TGI [2]: 21500 nM | GI50 [3]: 1240 nM | TGI [3]: 3190 nM | GI50 [4]: 1940 nM | TGI [4]: 5400 nM | GI50 [5]: 1340 nM | TGI [5]: 6980 nM | GI50 [6]: 1600 nM | TGI [6]: 3020 nM | GI50 [7]: 2020 nM | TGI [7]: 4990 nM | GI50 [8]: 1660 nM | TGI [8]: 7650 nM | GI50 [9]: 141 nM | TGI [9]: 2000 nM | GI50 [10]: 1860 nM | TGI [10]: 6540 nM | GI50 [11]: 2000 nM | TGI [11]: 6130 nM | GI50 [12]: 4060 nM | TGI [12]: 14900 nM | GI50 [13]: 2440 nM | TGI [13]: 5850 nM | GI50 [14]: 426 nM | TGI [14]: 3030 nM | GI50 [15]: 2400 nM | TGI [15]: 11200 nM | GI50 [16]: 1950 nM | TGI [16]: 3730 nM | GI50 [17]: 3090 nM | TGI [17]: 14500 nM | GI50 [18]: 1860 nM | TGI [18]: 6590 nM | GI50 [19]: 2500 nM | TGI [19]: 10400 nM | GI50 [20]: 1610 nM | TGI [20]: 3200 nM | GI50 [21]: 1600 nM | TGI [21]: 4190 nM | GI50 [22]: 1840 nM | TGI [22]: 5050 nM | GI50 [23]: 2080 nM | TGI [23]: 9270 nM | GI50 [24]: 2930 nM | TGI [24]: 11000 nM | GI50 [25]: 1990 nM | TGI [25]: 5500 nM | GI50 [26]: 2910 nM | TGI [26]: 16000 nM | GI50 [27]: 1510 nM | TGI [27]: 2960 nM | GI50 [28]: 1210 nM | TGI [28]: 2680 nM | GI50 [29]: 4740 nM | TGI [29]: 18000 nM | GI50 [30]: 2060 nM | TGI [30]: 5700 nM | GI50 [31]: 1930 nM | TGI [31]: 4260 nM | GI50 [32]: 1390 nM | TGI [32]: 2760 nM | GI50 [33]: 1900 nM | TGI [33]: 3870 nM | GI50 [34]: 1400 nM | TGI [34]: 2800 nM | GI50 [35]: 1380 nM | TGI [35]: 5340 nM | GI50 [36]: 2510 nM | TGI [36]: 6660 nM | GI50 [37]: 2920 nM | TGI [37]: 7500 nM | GI50 [38]: 74.9 nM | TGI [38]: 867 nM | GI50 [39]: 2700 nM | TGI [39]: 8570 nM | GI50 [40]: 1880 nM | TGI [40]: 4540 nM | GI50 [41]: 1940 nM | TGI [41]: 4610 nM | GI50 [42]: 2040 nM | TGI [42]: 6590 nM | GI50 [43]: 939 nM | TGI [43]: 7170 nM | GI50 [44]: 331 nM | TGI [44]: 1470 nM | GI50 [45]: 1290 nM | TGI [45]: 3080 nM | GI50 [46]: 1660 nM | TGI [46]: 3350 nM | GI50 [47]: 1470 nM | TGI [47]: 5940 nM | GI50 [48]: 1030 nM | TGI [48]: 3530 nM | GI50 [49]: 705 nM | TGI [49]: 6820 nM | GI50 [50]: 1520 nM | TGI [50]: 3000 nM | GI50 [51]: 1840 nM | TGI [51]: 3780 nM | GI50 [52]: 4190 nM | TGI [52]: 16900 nM | GI50 [53]: 1280 nM | TGI [53]: 3610 nM | GI50 [54]: 117 nM | TGI [54]: 1630 nM | GI50 [55]: 1720 nM | TGI [55]: 4660 nM | GI50 [56]: 1720 nM | TGI [56]: 3340 nM | GI50 [57]: 867 nM | TGI [57]: 2180 nM
